Consider 3 molecules from patent US11541099B2, “Flounder surimi having antioxidant and antihypertensive effects and method of preparing the same” (Jeju National University Industry-Academic Cooperation …, priority 2017, dated 2023).

Values after ≈ are worked out from the molar mass of the structure shown. Residues, ends and D or L forms follow the SMILES beside them. No end group written: not given here.

Experiment [1] deals with T1, angiotensin I converting enzyme (ACE) (Oryctolagus cuniculus, UniProt P12822).
T1 construct: The crude enzyme solution used herein was the supernatant obtained by centrifuging; tissue Sigma-Aldrich Co; host or cells: rabbit lung (acetone powder, crude extract supernatant)
T1 sequence (P12822 34-1310): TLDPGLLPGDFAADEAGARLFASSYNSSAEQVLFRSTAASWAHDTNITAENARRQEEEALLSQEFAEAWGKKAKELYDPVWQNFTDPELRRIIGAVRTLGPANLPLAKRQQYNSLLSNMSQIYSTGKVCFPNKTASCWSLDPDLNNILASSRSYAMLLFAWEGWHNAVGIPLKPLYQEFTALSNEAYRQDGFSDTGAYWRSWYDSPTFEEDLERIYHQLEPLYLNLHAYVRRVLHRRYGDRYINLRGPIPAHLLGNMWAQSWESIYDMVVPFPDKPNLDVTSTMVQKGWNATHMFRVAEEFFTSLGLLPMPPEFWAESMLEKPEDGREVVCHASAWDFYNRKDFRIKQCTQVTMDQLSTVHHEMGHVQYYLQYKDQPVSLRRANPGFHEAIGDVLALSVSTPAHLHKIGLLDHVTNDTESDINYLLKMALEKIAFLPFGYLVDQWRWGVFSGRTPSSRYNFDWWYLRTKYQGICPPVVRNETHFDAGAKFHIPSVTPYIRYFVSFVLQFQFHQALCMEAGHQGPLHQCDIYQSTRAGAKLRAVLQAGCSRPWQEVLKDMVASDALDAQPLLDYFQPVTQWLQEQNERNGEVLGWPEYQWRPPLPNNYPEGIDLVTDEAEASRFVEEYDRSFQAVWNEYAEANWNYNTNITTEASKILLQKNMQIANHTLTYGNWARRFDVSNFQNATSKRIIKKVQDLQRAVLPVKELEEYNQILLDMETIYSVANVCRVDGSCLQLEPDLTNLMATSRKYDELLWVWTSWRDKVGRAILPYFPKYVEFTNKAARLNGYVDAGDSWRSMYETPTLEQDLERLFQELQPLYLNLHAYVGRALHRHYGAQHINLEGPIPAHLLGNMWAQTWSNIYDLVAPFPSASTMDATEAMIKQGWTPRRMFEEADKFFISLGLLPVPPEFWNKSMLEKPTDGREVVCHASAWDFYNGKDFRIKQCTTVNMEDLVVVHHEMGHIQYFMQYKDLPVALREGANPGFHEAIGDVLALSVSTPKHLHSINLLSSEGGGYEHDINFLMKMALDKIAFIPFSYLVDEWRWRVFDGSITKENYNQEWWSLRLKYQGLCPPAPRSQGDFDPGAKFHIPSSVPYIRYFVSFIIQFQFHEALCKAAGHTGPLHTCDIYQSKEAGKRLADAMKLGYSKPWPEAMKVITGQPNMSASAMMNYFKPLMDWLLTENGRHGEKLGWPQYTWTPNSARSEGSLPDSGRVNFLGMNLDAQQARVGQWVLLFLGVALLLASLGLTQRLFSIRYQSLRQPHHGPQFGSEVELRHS
The experiment is described as follows: ACE inhibition activity (modified Cushman and Cheung's method). To be noted: read-out: concentration inhibiting 50% of ACE (IC50) (converted). The class given is biochemical, rabbit. As for the experimental part:
ACE inhibition activity was measured by a modified version of Cushman and Cheung's method. The crude enzyme solution used herein was the supernatant obtained by centrifuging (4° C., 4,000 rpm, 40 min) after extracting a rabbit lung acetone powder (Sigma-Aldrich Co.) at a concentration of 0.2 g/10 mL (w/v) and at 4° C. for 24 hours. The substrate was prepared by dissolving hippurylhistidyl-leucine ([…], Sigma-Aldrich Co.) at a concentration of 5 mg/mL (w/v) in a 0.1 M sodium borate buffer (pH 8.3) containing 0.3 M NaCl.
ACE inhibition activity was determined as follows. 50 μL of an ACE enzyme solution was added to 50 μL of a sample extract, reaction was proceeded at 37° C. for 5 minutes, 50 μL of a substrate was added thereto and the reaction was proceeded at 37° C. for 1 hour. Then, 150 μL of 1N HCl was added to stop the reaction, 750 μL of ethyl acetate was added thereto, and the mixture was stirred for 1 minute and centrifuged (3,500 rpm, 10 min) to obtain 500 μL of the supernatant. The supernatant was completely dried at 105° C. for 4 hours, 2 mL of ethyl acetate was added thereto, and the absorbance was measured at 228 nm. A control group was obtained by adding 50 μL of distilled water, instead of the sample extract.

The nature of experiment [2]: Alkyl radical scavenging activity by ESR. The following applies: peptides isolated from Fraction 2. As for the experimental part: In order to identify the radical scavenging ability using ESR (electron spin resonance spectrometer, JES-FA ESR, JEOL, Japan), ESR equipment owned by the Center for University-Wide Research Facilities, Jeju University was used and was in accordance with a modified version of the method by Hiramoto (1993). 20 μL of a sample was mixed with 20 μL of distilled water, 20 μL of 40 mM AAPH and 20 μL of 40 mM POBN were added to the resulting mixture, the reaction was proceeded at 37° C. for 30 minutes and the reaction solution was transferred to a capillary tube. The conditions used for analysis were as follows: central field: 3475 G, modulation width: 0.2 mT, 22 amplitude: 500 mT, scan width: 10 mT, set microwave power: 8 mW.

For the molecule VASVI [VASVI, Val-Ala-Ser-Val-Ile], the IC50 in experiment [1] was 117 µM. For the same molecule, in experiment [2], the “IC50 value Alkyl radical scavenging activity” value was 77 mg/L.
In the case of `CC[C@H](C)[C@H](N)C(=O)N[C@H](C(=O)N[C@@H](CC(=O)O)C(=O)N[C@@H](CCCNC(=N)N)C(=O)O)C(C)C` [IVDR, Ile-Val-Asp-Arg] (H-IVDR-OH; N-terminus and C-terminus assumed), the IC50 in experiment [1] is 63.8 µM. The “IC50 value Alkyl radical scavenging activity” value in experiment [2] was determined as 68 mg/L (≈ 136 µM).
On to `NCCCC[C@H](NC(=O)[C@H](Cc1ccc(O)cc1)NC(=O)[C@@H](N)Cc1c[nH]c2ccccc12)C(=O)O` [WYK, Trp-Tyr-Lys] (H-Trp-Tyr-Lys-OH; N-terminus and C-terminus assumed), for which the IC50 in experiment [1] is 32.3 µM. Further, in experiment [2], the “IC50 value Alkyl radical scavenging activity” value was 40 mg/L (≈ 80.7 µM).
